Measured values published in ChEMBL document CHEMBL5614400, “Emerging therapeutics: The imidazo[1,2-b]pyridazine scaffold as a novel drug candidate for eumycetoma, a neglected tropical disease” (Eur J Med Chem, 2024).
Calls of active or inactive are those of the source. The calls are words filed in the database; no cut-off is given here.

Experiments:
Type in all cases: functional, organism-based
Madurella mycetomatis [1] = assay: Antifungal activity against Madurella mycetomatis MM55 at 100 uM by XTT assay
Madurella mycetomatis [2] = assay: Antifungal activity against Madurella mycetomatis MM55 by XTT assay; conditions: Madurella mycetomatis, MM55
Madurella mycetomatis [3] = assay: Antifungal activity against Madurella mycetomatis MM55 at 25 uM by XTT assay

SMILES	Activity (Madurella mycetomatis [1])	IC50 (Madurella mycetomatis [2]) [µM]	Activity (Madurella mycetomatis [3])
CN1CCN(c2cc(-c3cccnc3)c3nc(-c4ccccc4F)cn3n2)CC1	Active	11.5	Active
CN1CCN(c2cc(-c3cccnc3)c3nc(-c4ccc(F)cc4)cn3n2)CC1	Active	> 16	Active
CN1CCN(c2cc(-c3cccnc3)c3nc(-c4cccc(F)c4)cn3n2)CC1	Active	11.7	Active
